Results published in publication PMC10820527, “Synthesis, Characterization, and Investigation of Anti-Inflammatory and Cytotoxic Activities of Novel Thiourea Derivatives of Naproxen” (Pharmaceutics, 2023).

Assays:
HCT 116 = assay: MTT cytotoxicity assay, HCT 116; assay type: cell-based, human; conditions: for IC50: Homo sapiens, mean ± SD
HeLa = assay: MTT cytotoxicity assay, HeLa; assay type: cell-based, human; conditions: Homo sapiens, HeLa, mean ± SD
[1] = tested on: carrageenan-induced rat paw edema; assay: Carrageenan-induced rat paw edema model; assay type: in vivo; conditions: for Rat Paw Thickness: mean ± SD; for inhibition in vivo at 2.5 mg/kg / inhibition in vivo at 5 mg/kg / inhibition in vivo at 10 mg/kg: Rattus norvegicus
Procedure, shortened: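 Rats dosed with compound in 1% DMSO at 2.5, 5 or 10 mg/kg 60 min before intraplantar injection of 0.5% carrageenan into left hind paw. Paw thickness measured by caliper at 0–4 h; % inhibition = 100 × [1 − (Yt/Yc)], comparing thickness increase in treated vs untreated rats.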

## COC(=O)[C@H](Cc1c[nH]c2ccccc12)NC(=S)NC(=O)[C@@H](C)c1ccc2cc(OC)ccc2c1 [Compound 14, Methyl (((S)-2-(6-methoxynaphthalen-2-yl)propanoyl)carbamothioyl)tryptophanate]
HCT 116
  Cytotoxic effect against the HCT 116 cell line (in words): moderate cytotoxic effects
HCT 116; HCT-116, 24 h
  IC50: 150 ± 7.6 µM
HCT 116; HCT-116, 48 h
  IC50: 108 ± 12.7 µM
HCT 116; HCT-116, 72 h
  IC50: 47.1 ± 5.4 µM
HeLa; 24 h
  IC50: > 200 µM
HeLa; 48 h
  IC50: 151 ± 14.2 µM
HeLa; 72 h
  IC50: 110 ± 11.5 µM
[1]; 2.5 mg/kg, 1 h after carrageenan
  Rat Paw Thickness: 6.53 ± 0.42 mm
[1]; 2.5 mg/kg, 2 h after carrageenan
  Rat Paw Thickness: 6.23 ± 0.25 mm
[1]; 2.5 mg/kg, 3 h after carrageenan
  Rat Paw Thickness: 5.90 ± 0.26 mm
[1]; 2.5 mg/kg, 4 h after carrageenan
  Rat Paw Thickness: 5.33 ± 0.49 mm
[1]; 5.0 mg/kg, 1 h after carrageenan
  Rat Paw Thickness: 6.77 ± 0.38 mm
[1]; 5.0 mg/kg, 2 h after carrageenan
  Rat Paw Thickness: 6.53 ± 0.42 mm
[1]; 5.0 mg/kg, 3 h after carrageenan
  Rat Paw Thickness: 6.17 ± 0.25 mm
[1]; 5.0 mg/kg, 4 h after carrageenan
  Rat Paw Thickness: 5.80 ± 0.10 mm
[1]; 10.0 mg/kg, 1 h after carrageenan
  Rat Paw Thickness: 7.03 ± 0.21 mm
[1]; 10.0 mg/kg, 2 h after carrageenan
  Rat Paw Thickness: 6.47 ± 0.06 mm
[1]; 10.0 mg/kg, 3 h after carrageenan
  Rat Paw Thickness: 6.03 ± 0.25 mm
[1]; 10.0 mg/kg, 4 h after carrageenan
  Rat Paw Thickness: 5.67 ± 0.21 mm
[1]; 2.5 mg/kg, 1 h
  inhibition in vivo at 2.5 mg/kg: 12.9%
[1]; 2.5 mg/kg, 2 h
  inhibition in vivo at 2.5 mg/kg: 16.7%
[1]; 2.5 mg/kg, 3 h
  inhibition in vivo at 2.5 mg/kg: 18.9%
[1]; 2.5 mg/kg, 4 h
  inhibition in vivo at 2.5 mg/kg: 37.8%
[1]; 5.0 mg/kg, 1 h
  inhibition in vivo at 5 mg/kg: 25.2%
[1]; 5.0 mg/kg, 2 h
  inhibition in vivo at 5 mg/kg: 27.3%
[1]; 5.0 mg/kg, 3 h
  inhibition in vivo at 5 mg/kg: 33.3%
[1]; 5.0 mg/kg, 4 h
  inhibition in vivo at 5 mg/kg: 42.2%
[1]; 10.0 mg/kg, 1 h
  inhibition in vivo at 10 mg/kg: 11.6%
[1]; 10.0 mg/kg, 2 h
  inhibition in vivo at 10 mg/kg: 27.3%
[1]; 10.0 mg/kg, 3 h
  inhibition in vivo at 10 mg/kg: 36.9%
[1]; 10.0 mg/kg, 4 h
  inhibition in vivo at 10 mg/kg: 46.7%
